This is an account of results in patent publication US10960007B2, “Pharmacologically active aryl-substituted pyrazolo[1,5-a]pyrimidine derivatives” (RICHTER GEDEON NYRT., priority 2017, dated 2021).

For one data set, the target named is T1, GABAB receptor (Rattus norvegicus, UniProt O88871+Q9Z0U4).
T1 construct: from tissue; host or cells: rat brain cortex membranes
Description: In vitro [35S]GTPγS binding assay in rat cortical membranes. It is filed as biochemical. The conditions noted are these: [35S]GTPγS binding, rat cortical membranes; read-out: In vitro PAM potency (PAM EC50). On the procedure: In Vitro [^35S]GTPγS Binding Assay in Rat Cortical Membranes
Cortices of freshly harvested rat brains were dissected on an ice-cold surface and homogenized by a glass Dounce homogeniser immediately in ice-cold buffer containing 50 mM Tris, 5 mM MgCl2 and 1 mM EDTA (pH=7.6). Tissue homogenates were centrifuged at 40000 g for 15 min at 4° C. Membrane pellets were resuspended in the same buffer and membranes were incubated for 10 min at 30° C. in a shaking water bath to eliminate endogenous GABA. Homogenates were centrifuged again under the same conditions. The final pellets were resuspended in ice-cold buffer (pH=7.6) containing 50 mM Tris, 100 mM NaCl, 7 mM MgCl2, 1 mM EDTA and 1 mM dithiotreithol (DTT) to yield a concentration of 20 mg tissue weight/ml and frozen at −70° C. until use. The assay was done in a buffer containing 50 mM Tris (pH=7.4), 100 mM NaCl, 7 mM MgCl2, 1 mM EDTA and 1 mM DTT. Each assay tube contained 150 μL GDP (in a final concentration of 50 μM), 100 μL ligand and 125 μL of the membrane suspension (250 μg tissue/tube). The assay tubes were preincubated for 10 min at 30° C. to assure equilibrium. Nonspecific binding was determined in the presence of 10 μM GTPγS; basal binding was determined in the presence of buffer only. After addition of […] [^35S]GTPγS in a volume of 25 μL to the tubes, membranes were incubated for an additional 60 min at 30° C. The assay was terminated by rapid filtration through Packard UniFilter GF/B using a Packard harvester and washed four times with 1 ml ice-cold buffer. After drying the filters at 40° C. for 1 h, 40 μL Microscint (Packard) was added to the filters and radioactivity of the filters was determined by a TopCount NXT (PerkinElmer, Waltham, Mass.; Alper and Nelson, Eur. J. Pharmacol. 1998, 343, 303-312; Rinken et al, Biochem. Pharmacol. 1999, 57, 155-162). Data thus gathered were used to determine PAM EC50 values for each compound as primary in vitro activity end point.
(In general: GTPγS resists hydrolysis and so accumulates on activated G proteins.)

The nature of data set [1]: Plasma and brain exposure after USV measurement. It is filed as in vivo. The conditions noted are these: rat, per os, about 75 min after treatment. The method, then: (§1) Under stressful conditions, adult rats emit 22 kHz ultrasounds that can be reduced by various pharmacological treatments (De Vry et al, Eur. J. Pharmacol. 1993, 249, 331-339; Sanchez, Eur. J. Pharmacol. 2003, 463, 133-143). […] Therefore, a foot shock-induced vocalization paradigm in adult rats was used to assess in vivo efficacy of centrally acting GABAB receptor ligands. Behavioral measurements were carried out on male Wistar rats (200-250 g, Toxicoop, Hungary). Rats were housed in groups of four in plastic cages with a wire grid top in a temperature and light-controlled laboratory animal care unit (22±2° C., 12-h light/dark cycle, lights on at 6:00 AM) with ad libitum access to commercial pellet rat food and tap water. Investigations were approved by the Local Ethical Committee of Gedeon Richter Plc. and were carried out in strict compliance with the European Directive 2010/63/EU regarding the care and use of laboratory animals for experimental procedures and all efforts were made to minimize the number of animals as well as their suffering. In order to evoke emission of ultrasounds, animals were footshocked after a habituation period of 30 s (6 shocks, 1 s, 0.8 mA each, inter-shock interval 10 s) in a sound attenuated shocking chamber (Experimetria, 40×40×80 cm). […] Vocalizations were measured right after the last footshock for 10 min with a Metris Sonotrack system and the total time of vocalizations was registered. Vocalization of parallel vehicle treated animals was considered as control value and inhibition percent was calculated for each compound. At approximately 75 min after treatment and behavioral measurements, blood and brain samples were harvested in order to determine exposures associated with in vivo activity.

The next data set concerns adult rats. Put plainly: Foot shock-induced ultrasonic vocalization (USV) in adult rats. It is filed as in vivo, rat. The following applies: male Wistar rats; for inhibition in vivo at 10 mg/kg: Rattus norvegicus, po, 10 mg/kg per os, 1 h before shocking. The method, then:
Foot Shock-Induced Ultrasonic Vocalization (USV) in Adult Rats
as §1

Each structure is given as a SMILES string.

T1 sequence (O88871 41-940): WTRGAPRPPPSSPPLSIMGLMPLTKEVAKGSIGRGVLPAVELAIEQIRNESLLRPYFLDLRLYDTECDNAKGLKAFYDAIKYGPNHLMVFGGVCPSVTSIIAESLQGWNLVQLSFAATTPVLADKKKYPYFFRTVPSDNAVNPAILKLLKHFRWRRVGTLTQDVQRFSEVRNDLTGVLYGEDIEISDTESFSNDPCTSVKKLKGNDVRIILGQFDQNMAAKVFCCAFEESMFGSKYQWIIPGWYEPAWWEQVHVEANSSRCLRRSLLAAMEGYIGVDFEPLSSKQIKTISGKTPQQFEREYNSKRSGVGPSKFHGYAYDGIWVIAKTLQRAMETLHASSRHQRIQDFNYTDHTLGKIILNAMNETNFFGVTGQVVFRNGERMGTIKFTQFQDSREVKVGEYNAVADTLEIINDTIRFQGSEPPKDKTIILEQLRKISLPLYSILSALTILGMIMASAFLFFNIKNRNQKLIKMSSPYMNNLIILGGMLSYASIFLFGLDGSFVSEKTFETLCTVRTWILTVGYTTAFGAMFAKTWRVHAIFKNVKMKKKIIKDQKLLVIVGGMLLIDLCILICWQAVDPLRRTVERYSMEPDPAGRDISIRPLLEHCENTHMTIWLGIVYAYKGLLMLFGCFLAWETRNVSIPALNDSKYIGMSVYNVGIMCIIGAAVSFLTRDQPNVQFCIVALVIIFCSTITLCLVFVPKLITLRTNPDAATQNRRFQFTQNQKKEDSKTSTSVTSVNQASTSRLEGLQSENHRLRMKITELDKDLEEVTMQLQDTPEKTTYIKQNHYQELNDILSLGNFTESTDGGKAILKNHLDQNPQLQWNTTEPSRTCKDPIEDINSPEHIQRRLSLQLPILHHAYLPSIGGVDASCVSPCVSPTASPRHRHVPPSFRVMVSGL
T1 sequence (Q9Z0U4 17-960 limits assumed): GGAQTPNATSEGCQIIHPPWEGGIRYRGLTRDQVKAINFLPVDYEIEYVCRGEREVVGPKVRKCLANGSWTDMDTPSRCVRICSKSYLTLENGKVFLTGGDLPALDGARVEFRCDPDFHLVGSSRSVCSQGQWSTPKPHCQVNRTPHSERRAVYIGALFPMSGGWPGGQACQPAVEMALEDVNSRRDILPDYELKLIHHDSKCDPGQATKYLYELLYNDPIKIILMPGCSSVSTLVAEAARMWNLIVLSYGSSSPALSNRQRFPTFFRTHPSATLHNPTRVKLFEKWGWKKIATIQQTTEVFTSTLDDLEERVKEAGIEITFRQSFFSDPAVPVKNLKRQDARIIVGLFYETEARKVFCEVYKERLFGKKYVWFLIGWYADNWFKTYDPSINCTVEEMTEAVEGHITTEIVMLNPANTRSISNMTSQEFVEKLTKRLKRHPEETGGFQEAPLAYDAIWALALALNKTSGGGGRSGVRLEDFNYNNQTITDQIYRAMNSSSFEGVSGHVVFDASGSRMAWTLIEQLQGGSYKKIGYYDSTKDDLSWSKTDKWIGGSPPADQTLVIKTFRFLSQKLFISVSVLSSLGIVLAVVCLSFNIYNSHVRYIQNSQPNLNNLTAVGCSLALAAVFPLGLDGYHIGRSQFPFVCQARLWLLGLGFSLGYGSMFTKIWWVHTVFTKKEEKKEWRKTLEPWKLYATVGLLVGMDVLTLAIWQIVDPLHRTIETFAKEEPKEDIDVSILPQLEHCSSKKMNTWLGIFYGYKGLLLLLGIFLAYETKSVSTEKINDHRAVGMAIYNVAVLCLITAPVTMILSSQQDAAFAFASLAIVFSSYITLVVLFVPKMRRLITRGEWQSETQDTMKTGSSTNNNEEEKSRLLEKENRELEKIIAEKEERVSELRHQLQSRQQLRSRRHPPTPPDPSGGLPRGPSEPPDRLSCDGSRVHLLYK

On to `CC[C@@]1(C(=O)O)CCCN(c2c(C(C)C)c(C)nc3cc(-c4ccc(Cl)cc4)nn23)C1` [Example 21], for which the EC50 (in general, the concentration that produces a half-maximal response) on GABAB receptor lay in the range of 10 to 100 nM.
Regarding `Cc1nc2cc(-c3ccc(Cl)cc3)nn2c(N2CCC[C@@](C(=O)O)(C(C)C)C2)c1C(C)C` [Example 22], on GABAB receptor, the EC50 is 10 to 100 nM.
For the compound `COCC1(C(=O)O)CCCN(c2c(C(C)C)c(C)nc3cc(-c4ccc(C(F)(F)F)cc4)nn23)C1` (centres unmarked) [Example 16], the EC50 on GABAB receptor is 10 to 100 nM. For the same compound, in data set [1] (formulation Tween), the “Brain exposure at 1 mg/kg” value is given as 28 ng/g and the “Plasma exposure at 1 mg/kg” value is 103 ng/mL. Besides, at 10 mg/kg the inhibition in vivo in the data set with adult rats was 41%.
For `Cc1nc2cc(-c3ccc(C(F)(F)F)cc3F)nn2c(N2CCC[C@@](C(=O)O)(C(C)C)C2)c1C(C)C` [Example 11, (3R)-1-{2-[2-Fluoro-4-(trifluoromethyl)phenyl]-5-methyl-6-(propan-2-yl)pyrazolo[1,5-a]pyrimidin-7-yl}-3-(propan-2-yl)piperidine-3-carboxylic acid], on GABAB receptor, the EC50 lay within 1 to 10 nM. For the same compound, in data set [1] (formulation Tween), the “Brain exposure at 1 mg/kg” value was 165 ng/g and the “Plasma exposure at 1 mg/kg” value came out at 326 ng/mL. Also, 10 mg/kg produced 15% inhibition in vivo in the data set with adult rats.
Taken in the same sequence, the figures for `Cc1nc2cc(-c3ccc(C(F)(F)F)cc3)nn2c(N2CCC[C@@](C(=O)O)(C(C)C)C2)c1C(C)C` [Example 28] were 10 to 100 nM, 184 ng/g, 222 ng/mL and 35%.
`CCC1(C(=O)O)CCCN(c2c(C(C)C)c(C)nc3cc(-c4ccc(Cl)cc4)nn23)C1` (centres unmarked) [Example 20]: on GABAB receptor, the EC50 lay within 10 to 100 nM. In addition, in data set [1] (formulation SpD1), the “Brain exposure at 1 mg/kg” value is on record as 1093 ng/g and the “Plasma exposure at 1 mg/kg” value came to 1275 ng/mL.
Regarding `Cc1nc2c(F)c(-c3ccc(Cl)cc3)nn2c(N2CCCC(C(=O)O)C2)c1C(C)C` (centres unmarked) [Example 70], the inhibition in vivo (usually the share of the control response that was lost under treatment) at 10 mg/kg in the data set on adult rats is 71%.
`CC[C@]1(C(=O)O)CCCN(c2c(C(C)C)c(C)nc3cc(-c4ccc(C(F)(F)F)cc4F)nn23)C1` [Example 7, (3S)-3-Ethyl-1-{2-[2-fluoro-4-(trifluoromethyl)phenyl]-5-methyl-6-(propan-2-yl)pyrazolo[1,5-a]pyrimidin-7-yl}piperidine-3-carboxylic acid]: on GABAB receptor, the EC50 lay in the range of 1 to 10 nM. Moreover, in data set [1] (formulation Tween), the “Brain exposure at 1 mg/kg” value stood at 332 ng/g and the “Plasma exposure at 1 mg/kg” value turned out to be 506 ng/mL. Besides, in the data set with adult rats, the inhibition in vivo at 10 mg/kg turned out to be 90%.
On the same counts, the results for `Cc1nc2cc(-c3ccc(C(F)(F)F)cc3Cl)nn2c(N2CCC[C@](C)(C(=O)O)C2)c1C(C)C` [Example 13, (3S)-1-{2-[2-Chloro-4-(trifluoromethyl)phenyl]-5-methyl-6-(propan-2-yl)pyrazolo[1,5-a]pyrimidin-7-yl}-3-methylpiperidine-3-carboxylic acid] are 1 to 10 nM, 424 ng/g, 843 ng/mL and 90%.
For the compound `COCC1(C(=O)O)CCCN(c2c(C(C)C)c(C)nc3cc(-c4ccc(C(F)(F)F)cc4F)nn23)C1` (centres unmarked) [Example 17, 1-{2-[2-Fluoro-4-(trifluoromethyl)phenyl]-5-methyl-6-(propan-2-yl)pyrazolo[1,5-a]pyrimidin-7-yl}-3-(methoxymethyl)piperidine-3-carboxylic acid], on GABAB receptor, the EC50 fell in the range of 1 to 10 nM. Besides, in data set [1] (formulation Tween), the “Brain exposure at 1 mg/kg” value is 144 ng/g and the “Plasma exposure at 1 mg/kg” value was found to be 443 ng/mL. Further, 10 mg/kg produced 44% inhibition in vivo in the data set on adult rats.
As to `Cc1nc2cc(-c3ccc(Cl)cc3)nn2c(N2CCCC(C(=O)O)(C(C)C)C2)c1C(C)C` (centres unmarked) [Example 3, 1-[2-(4-Chlorophenyl)-5-methyl-6-(propan-2-yl)pyrazolo[1,5-a]pyrimidin-7-yl]-3-(propan-2-yl)piperidine-3-carboxylic acid], the EC50 at GABAB receptor lay in the range of 10 to 100 nM. Further, in data set [1] (formulation Tween), the “Brain exposure at 1 mg/kg” value is recorded as 395 ng/g and the “Plasma exposure at 1 mg/kg” value is reported as 358 ng/mL. In the data set with adult rats, this compound yielded an inhibition in vivo at 10 mg/kg of 58%.
In the case of `CC[C@]1(C(=O)O)CCCN(c2c(C(C)C)c(C)nc3cc(-c4ccc(C(F)(F)F)cc4)nn23)C1` [Example 6, (3S)-3-Ethyl-1-[5-methyl-6-(propan-2-yl)-2-[4-(trifluoromethyl)phenyl]pyrazolo[1,5-a]pyrimidin-7-yl]piperidine-3-carboxylic acid], the EC50 at GABAB receptor lay in the range of 10 to 100 nM. For the same compound, in data set [1] (formulation Tween), the “Brain exposure at 1 mg/kg” value was found to be 1326 ng/g and the “Plasma exposure at 1 mg/kg” value stood at 1453 ng/mL. The compound further yielded an inhibition in vivo at 10 mg/kg in the data set on adult rats of 90%.
As for `CC[C@]1(C(=O)O)CCCN(c2c(C(C)C)c(C)nc3cc(-c4ccc(Cl)cc4)nn23)C1` [Example 5, (3S)-1-[2-(4-Chlorophenyl)-5-methyl-6-(propan-2-yl)pyrazolo[1,5-a]pyrimidin-7-yl]-3-ethylpiperidine-3-carboxylic acid], the half-maximal effective concentration (EC50) on GABAB receptor was in the range of 10 to 100 nM. Also, in data set [1] (formulation SpD1), the “Brain exposure at 1 mg/kg” value is listed as 857 ng/g and the “Plasma exposure at 1 mg/kg” value stood at 1472 ng/mL. Also, testing at 10 mg/kg in the data set with adult rats gave an inhibition in vivo of 37%.
On to `Cc1nc2c(F)c(-c3ccc(C(F)(F)F)cc3)nn2c(N2CCC[C@](C)(C(=O)O)C2)c1C(C)C` [Example 84], for which the EC50 at GABAB receptor lay within 1 to 10 nM. Further, in data set [1] (formulation Tween), the “Brain exposure at 1 mg/kg” value was 85 ng/g and the “Plasma exposure at 1 mg/kg” value stood at 113 ng/mL. Further, the “USV inhibition (%)” value with adult rats (at 3 mg/kg, per os) was 42 (at 3 mg/kg) %.
For `Cc1nc2cc(-c3ccc(C(F)(F)F)cc3)nn2c(N2CCC[C@](C(=O)O)(C(C)C)C2)c1C(C)C` [Example 10, (3S)-1-[5-Methyl-6-(propan-2-yl)-2-[4-(trifluoromethyl)phenyl]pyrazolo[1,5-a]pyrimidin-7-yl]-3-(propan-2-yl)piperidine-3-carboxylic acid], the EC50 at GABAB receptor was 1 to 10 nM. Moreover, in data set [1] (formulation Tween), the “Brain exposure at 1 mg/kg” value turned out to be 150 ng/g and the “Plasma exposure at 1 mg/kg” value came to 36 ng/mL. In the data set on adult rats, this compound gave an inhibition in vivo at 10 mg/kg of 30%.
`CC[C@@]1(C(=O)O)CCCN(c2c(C(C)C)c(C)nc3cc(-c4ccc(C(F)(F)F)cc4F)nn23)C1` [Example 8, (3R)-3-Ethyl-1-{2-[2-fluoro-4-(trifluoromethyl)phenyl]-5-methyl-6-(propan-2-yl)pyrazolo[1,5-a]pyrimidin-7-yl}piperidine-3-carboxylic acid]: in data set [1] (formulation Tween), the “Brain exposure at 1 mg/kg” value is 1193 ng/g and the “Plasma exposure at 1 mg/kg” value is reported as 298 ng/mL. In the data set on adult rats, this compound returned an inhibition in vivo at 10 mg/kg of 60%.
Consider `Cc1nc2cc(-c3ccc(Cl)cc3Cl)nn2c(N2CCC[C@](C(=O)O)(C(C)C)C2)c1C(C)C` [Example 45], for which, on GABAB receptor, the EC50 was in the range of 10 to 100 nM.
In the case of `Cc1nc2cc(-c3ccc(C(F)(F)F)cc3)nn2c(N2CCC[C@](C)(C(=O)O)C2)c1C(C)C` [Example 12, (3S)-3-Methyl-1-[5-methyl-6-(propan-2-yl)-2-[4-(trifluoromethyl)phenyl]pyrazolo[1,5-a]pyrimidin-7-yl]piperidine-3-carboxylic acid], at GABAB receptor, the EC50 was 1 to 10 nM. Besides, in data set [1] (formulation Tween), the “Brain exposure at 1 mg/kg” value is 218 ng/g and the “Plasma exposure at 1 mg/kg” value turned out to be 283 ng/mL. In addition, the inhibition in vivo at 10 mg/kg with adult rats was determined as 63%.
For `Cc1nc2cc(-c3ccc(C(F)(F)F)c(F)c3)nn2c(N2CCC[C@@](C(=O)O)(C(C)C)C2)c1C(C)C` [Example 58], the EC50 at GABAB receptor is 10 to 100 nM.
